Drawing on PubChem BioAssay (NCI), this text covers TGI and GI50 for 24 molecules.

Holding throughout (assay): growth of human tumour cells (NCI), 48 h
For test [1], the system named is SNB-75 CNS.
Test [2] has as its system SK-MEL-5 melanoma.
For test [3], the system named is K-562 leukemia.
Test [4] relates to SNB-19 CNS.
Test [5] relates to OVCAR-3 ovarian.
The subject of test [6] is SK-MEL-2 melanoma.
For test [7], the system named is SK-MEL-28 melanoma.
Test [8] deals with CCRF-CEM leukemia.

Several values for one entry are separate records, joined by “and”; a condition that tells them apart may be missing. Equal entries are not always repeated.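 Five compound concentrations were applied to cells in 96-well plates for 48 hours; endpoints were derived by simple linear interpolation of the resulting dose-response curve. The concentration for 50% growth inhibition is given as GI50. TGI is the concentration that stops growth completely.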

For `Cn1c(N)nc(=O)c2c1N(C1OC(CO)C(O)C1O)CN2Cc1ccccc1` (stereo unspecified), the TGI in test [1], in test [2], in test [3], in test [4], in test [5] and in test [6] was more than 100 µM in each case.
In the case of `NC1=NN(c2ccccc2)C(=O)C1C(=O)C(=O)Nc1nccs1` (stereo unspecified), the TGI in test [1], in test [7], in test [2], in test [3], in test [8] and in test [4] was more than 100 µM in each case. Moreover, the TGI in test [5] and in test [6] was more than 100 µM in each case.
In the case of `CC(=O)O[C@@]1(C)[C@@H](C)C(=O)O[C@@H]2CCN3CC=C(COC(=O)[C@]1(C)O)[C@H]23`, the TGI in test [1], in test [7], in test [2], in test [3], in test [8] and in test [4] was more than 100 µM each time. Also, the TGI in test [5] and in test [6] was more than 100 µM throughout.
With `COc1ccc2c3c(c(C(=O)c4ccccc4)oc13)CCC2`, the TGI in test [1], in test [7], in test [2], in test [3], in test [8] and in test [4] was more than 100 µM each time. Also, the TGI in test [5] was more than 100 µM.
Consider `C/C=C(\CCOS(=O)(=O)c1ccc(C)cc1)[Si](C)(C)C`, for which the TGI in test [1] was more than 100 µM; in test [7], more than 100 µM; in test [2], more than 100 µM; in test [3], more than 100 µM; in test [8] it was 27.3 µM; in test [4], more than 100 µM. Also, the TGI in test [5] and in test [6] was more than 100 µM each time.
Turning to `Nc1n[n+](-c2ccccc2)no1`, the TGI in test [2], in test [3], in test [8], in test [4] and in test [5] was more than 100 µM each time.
Consider `Cc1[nH]c(=O)[nH]c1C(=O)c1ccc(-n2ccnc2)cc1`, for which the TGI in test [1], in test [7], in test [2], in test [3], in test [4] and in test [5] was more than 100 µM throughout. The molecule further came in with a TGI in test [6] of more than 100 µM.
Take `CC1=C(O)/C(=C/C(C)CCC/C(C)=C/C=C/C(C)CCCc2ccoc2)OC1=O` (stereo unspecified): the values for the TGI in test [1], in test [7] and in test [6] were more than 100 µM, more than 100 µM and 57.9 µM, respectively.
As to `COC(=O)C(C(=O)C(=O)Nc1cccc([N+](=O)[O-])c1)c1nc2ccc([N+](=O)[O-])cc2[nH]c1=O` (stereo unspecified), the TGI in test [1], in test [7], in test [2], in test [3], in test [8] and in test [4] was more than 100 µM in each case. The TGI in test [5] and in test [6] was more than 100 µM in each case.
Turning to `O=C(O/N=C1/CCC/C1=C\c1ccccc1)c1ccc(Cl)c(Cl)c1`, the TGI in test [1], in test [7], in test [2], in test [3], in test [8] and in test [5] was more than 100 µM each time. Further, the TGI in test [6] was more than 100 µM.
With `CC(=O)[CH-]C(=O)c1ccccc1.CC(=O)[CH-]C(=O)c1ccccc1.Cc1cc([O-])ccc1Cl.Cc1cc([O-])ccc1Cl.[Ti+4]`, the GI50 was 20.7 µM in test [1]; 34.7 µM in test [7]; 19.3 µM in test [2]; 23.3 µM in test [3]; 8.45 µM in test [8]; 26.7 µM in test [4]. For the same molecule, the GI50 in test [5] was 18.9 µM; in test [6], 19.3 µM. Besides, the TGI in test [1] is 69.1 µM; in test [7] it was more than 100 µM; in test [2] it was 44.9 µM; in test [3], more than 100 µM; in test [8], 42.3 µM; in test [4], 90.5 µM. Also, the TGI amounted to 60.6 µM in test [5] and 47 µM in test [6].
As to `CCCCCCCCCC(=O)OCC1OC(n2cc(F)c(=O)[nH]c2=O)C(NC(=O)OCc2ccccc2)C(OC(=O)CCCCCCCCC)C1O` (stereo unspecified), the TGI in test [1] was more than 100 µM; in test [7], more than 100 µM; in test [2] it was 41.5 µM; in test [3], more than 100 µM; in test [8], more than 100 µM; in test [4], more than 100 µM. In addition, the results for the TGI in test [5] and in test [6] were 48.5 µM and more than 100 µM, respectively.
For the molecule `O=C1C2C(C(=O)N1c1ccccc1)C1([N+](=O)[O-])C=C3c4ccccc4N(C(=O)c4ccccc4)C32C2C(=O)N(c3ccccc3)C(=O)C21` (stereo unspecified), the TGI in test [1], in test [7], in test [3], in test [8], in test [4] and in test [5] was more than 100 µM each time. Further, the TGI in test [6] was more than 100 µM.
Consider `COC(=O)C12OCC34C(CC5C(C)C6=CC(=O)OC6=CC5(C)C3C(O)C1O)OC(=O)C(O)C24` (stereo unspecified), for which the GI50 was 0.158 µM in test [1]; 0.0899 µM in test [7]; 0.373 µM in test [2]; 0.0468 µM in test [3]; 0.0525 µM in test [4]; 0.282 µM in test [5]. Also, the GI50 in test [6] was 0.313 µM. Also, the TGI was 0.682 µM and 2.48 µM in test [1]; 0.933 µM and 2.29 µM in test [7]; 0.255 µM and 2.31 µM in test [2]; 6.94 µM in test [3]; 3.61 µM in test [5]; 0.944 µM and 2.43 µM in test [6].
On to `COc1ccc(/C=C2\CCC(CCN(C)C)(C3=CCCC3)C2=O)cc1Br` (stereo unspecified), for which the TGI in test [1] was 17.5 µM; in test [7], 7.7 µM; in test [2] it was 3.15 µM; in test [3], 5.23 µM; in test [8], 5.74 µM; in test [4], 22.1 µM. Besides, the TGI amounted to 19.3 µM in test [5] and 22.2 µM in test [6].
For `O=C(N/N=C1\C(=O)N(c2nccs2)C(=O)C(=O)C1c1nc2ccccc2s1)c1ccccc1O` (stereo unspecified), the TGI in test [1], in test [7], in test [2], in test [3], in test [8] and in test [4] was more than 100 µM in each case. The TGI in test [5] and in test [6] was more than 100 µM each time.
For the molecule `CCc1cc(CCC(=O)Nc2ccccc2[N+](=O)[O-])[nH]c(=S)n1`, the TGI in test [7], in test [3], in test [8], in test [4], in test [5] and in test [6] was more than 100 µM throughout.
Regarding `CCOC(=O)C(CC/C=C\c1ccccc1)N1CCC[C@H]1C(=O)OC` (stereo partly specified), the TGI in test [1], in test [7], in test [2], in test [3], in test [8] and in test [4] was more than 100 µM each time. Also, the TGI in test [5] and in test [6] was more than 100 µM in each case.
As for `CCOC(=O)c1cnc2sc3ccc4ccccc4c3n2c1=O`, the TGI was more than 100 µM in test [1]; more than 100 µM in test [7]; more than 100 µM in test [2]; more than 100 µM in test [3]; 82.6 µM in test [8]; more than 100 µM in test [4]. The TGI in test [5] and in test [6] was more than 100 µM throughout.
`O=C(CCn1[nH]c(=O)c(Cl)c(Cl)c1=O)NNC(=O)C[n+]1ccccc1`: the TGI in test [1], in test [7], in test [2], in test [3], in test [8] and in test [4] was more than 100 µM throughout. Further, the TGI in test [5] and in test [6] was more than 100 µM throughout.
In the case of `Cc1cccc2c1CCC21OC(=O)c2c1ccc1ccccc21` (stereo unspecified), the TGI in test [1] was more than 100 µM; in test [7] it was more than 100 µM; in test [2], 46 µM; in test [3], 66.7 µM; in test [8], more than 100 µM; in test [4], more than 100 µM. For the same molecule, the values for the TGI in test [5] and in test [6] were more than 100 µM and 62.3 µM, respectively.
For `O=C(CC(=O)c1cccc2ccccc12)C(=O)NC1C2CC3CC(C2)CC1C3` (stereo unspecified), the TGI in test [2], in test [3], in test [8], in test [4] and in test [5] was more than 100 µM throughout.
In the case of `CSc1snc2sc3c(Cl)nnnc3c12`, the TGI in test [1] came to 23.7 µM; in test [7], 23.2 µM; in test [2], 30.7 µM; in test [3], 5.73 µM; in test [8], 11 µM; in test [4] it was 30.1 µM. In addition, the TGI was found to be 5.72 µM in test [5] and 27.7 µM in test [6].
With `Cc1cccc(C(C)(C)C)c1NC(=O)CCc1nc(=S)[nH][nH]1`, the TGI in test [1], in test [7], in test [2], in test [3], in test [8] and in test [4] was more than 100 µM throughout. For the same molecule, the TGI in test [5] and in test [6] was more than 100 µM throughout.
